Source: patent US4169141A, “1-Peptidyl derivatives of di-O-aminoglycosyl-1,3-diaminocyclitol antibacterial agents” (priority 1978, dated 1979)

System: Pseudomonas infections caused by known producers of GAT I
Test: Mouse protection test, Pseudomonas infection
Assay type: in vivo, CF1 (Carworth Farms) mice
Settings: CF1 mice 18 to 20 g
Protocol: B. Mouse protection tests were performed in the usual manner using CF1 (Carworth Farms) mice weighing 18 to 20 g. each. […] Thus, the compounds of this invention may be used to control or eradicate susceptible bacterial strains in warm blooded animals, particularly in laboratory animals.

For `CN[C@@H]1[C@@H](O)[C@@H](O[C@@H]2[C@@H](O)[C@H](O[C@H]3OC(CN)=CC[C@H]3N)[C@@H](N)C[C@H]2N)OC[C@]1(C)O` [sisomicin], which “protection (mouse protection test, PD50)” value is on record?
Its value is “slight protection”.
